Results taken from ChEMBL document CHEMBL1138486, “Sequence-derived three-dimensional pharmacophore models for G-protein-coupled receptors and their application in virtual screening” (J Med Chem, 2009).

Molecular target: T1, Complement component 3a receptor 1, isoform CRA_a (Homo sapiens, UniProt A8K2H7)
T1 sequence (A8K2H7 whole entry): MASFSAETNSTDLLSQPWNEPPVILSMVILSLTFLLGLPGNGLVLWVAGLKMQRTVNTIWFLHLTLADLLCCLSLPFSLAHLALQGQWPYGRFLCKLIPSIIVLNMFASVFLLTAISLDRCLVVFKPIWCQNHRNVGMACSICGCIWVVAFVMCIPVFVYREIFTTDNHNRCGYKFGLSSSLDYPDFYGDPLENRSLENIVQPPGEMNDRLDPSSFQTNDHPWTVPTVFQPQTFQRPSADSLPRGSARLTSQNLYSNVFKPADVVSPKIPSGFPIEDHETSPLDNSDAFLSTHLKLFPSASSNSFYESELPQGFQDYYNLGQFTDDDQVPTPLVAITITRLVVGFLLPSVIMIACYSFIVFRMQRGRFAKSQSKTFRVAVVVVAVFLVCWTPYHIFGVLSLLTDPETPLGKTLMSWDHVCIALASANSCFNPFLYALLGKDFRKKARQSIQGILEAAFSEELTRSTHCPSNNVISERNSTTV
Test: Agonist activity at human C3AR1 expressed in […] by FLIPR assay
Type: functional, cell-based

EC50 [µM] | SMILES
0.31 | CCCCc1nc2cccc(CCCl)c2n1Cc1ccc(-c2ccccc2C(=O)O)cc1
0.53 | CCCCc1cn(Cc2ccc(-c3ccccc3C(=O)O)cc2)c2cccc(SC)c2c1=O
0.002 | CCCc1nc(Br)c(S(C)(=O)=O)n1Cc1ccc(-c2ccccc2-c2nn[nH]n2)cc1
0.0027 | CCCCn1c(Cc2ccccc2)nc2cc(/C(=C/C(=O)O)c3ccccc3)ccc21
